Where a name gives a salt, the structure may show the parent alone.
System: E. coli 7MP strain producing CMY type, SHV, TEM beta-lactamase enzymes
Assay: Time kill study (viable bacterial count)
Type: cell-based
Conditions: for Effect on bacterial count of E. coli throughout the duration of the study (in words): alone or in combination; for Bacterial count (Log10 CFU/ml) 0 hour / Bacterial count (Log10 CFU/ml) 2 hour / Bacterial count (Log10 CFU/ml) 4 hour / Bacterial count (Log10 CFU/ml) 6 hour / Bacterial count (Log10 CFU/ml) 8 hour: time kill
Procedure: The synergistic killing effect of the combinations according to invention was studied by performing time kill studies. In a typical time kill study, the freshly grown cultures were diluted to the required cell density (initial starting inoculum) in Cation adjusted Muller Hinton broth medium (BD, USA). The antibacterial agents (either alone or in combination) at the required concentrations were added into the culture-containing medium. The samples were incubated under shaking condition (120 rpm) at 37° C. Enumeration of viable bacterial count was done every 2 hour by diluting in normal saline and plating on to the Tryptic Soya Agar plates (BD, USA). The plates were incubated for 24 hours to arrive at the viable bacterial count. […] In general, the decrease of 1 Log CFU/ml, corresponds to 90% killing of bacteria. Similarly, 2 Log CFU/ml reductions indicates to 99% killing of bacteria and 3 Log CFU/ml reductions is equal to 99.9% killing of bacteria.
The assay without any antibacterial agent was taken as control.

[1] = each active ingredient at 4 mcg/ml

SMILES: CO/N=C(\C(=O)N[C@@H]1C(=O)N2C(C(=O)[O-])=C(C[N+]3(C)CCCC3)CS[C@H]12)c1csc(N)n1 [Cefepime, cefepime]
- Effect on bacterial count of E. coli throughout the duration of the study (in words) [1]: not effective in decreasing the bacterial count
- Bacterial count (Log10 CFU/ml) 0 hour [1]: 7.51 Log10 CFU/ml
- Bacterial count (Log10 CFU/ml) 2 hour [1]: 8.47 Log10 CFU/ml
- Bacterial count (Log10 CFU/ml) 4 hour [1]: 9.19 Log10 CFU/ml
- Bacterial count (Log10 CFU/ml) 6 hour [1]: 9.20 Log10 CFU/ml
- Bacterial count (Log10 CFU/ml) 8 hour [1]: 9.30 Log10 CFU/ml

SMILES: CO/N=C(\C(=O)N[C@@H]1C(=O)N2C(C(=O)[O-])=C(C[n+]3cccc4c3CCC4)CS[C@H]12)c1csc(N)n1 [Cefpirome, cefpirome]
- Effect on bacterial count of E. coli throughout the duration of the study (in words) [1]: not effective in decreasing the bacterial count
- Bacterial count (Log10 CFU/ml) 0 hour [1]: 7.51 Log10 CFU/ml
- Bacterial count (Log10 CFU/ml) 2 hour [1]: 8.87 Log10 CFU/ml
- Bacterial count (Log10 CFU/ml) 4 hour [1]: 9.27 Log10 CFU/ml
- Bacterial count (Log10 CFU/ml) 6 hour [1]: 9.20 Log10 CFU/ml
- Bacterial count (Log10 CFU/ml) 8 hour [1]: 9.25 Log10 CFU/ml

SMILES: C[C@@H](O)[C@H]1C(=O)N2C(C(=O)O)=C(SCCN=CN)C[C@H]12 [Imipenem, imipenem]
- Bacterial count (Log10 CFU/ml) 0 hour (2 mcg/ml): 7.51 Log10 CFU/ml
- Bacterial count (Log10 CFU/ml) 2 hour (2 mcg/ml): 3.95 Log10 CFU/ml
- Bacterial count (Log10 CFU/ml) 4 hour (2 mcg/ml): 3.60 Log10 CFU/ml
- Bacterial count (Log10 CFU/ml) 6 hour (2 mcg/ml): 4.81 Log10 CFU/ml
- Bacterial count (Log10 CFU/ml) 8 hour (2 mcg/ml): 5.90 Log10 CFU/ml

SMILES: N#C[C@@H]1CC[C@@H]2CN1C(=O)N2OS(=O)(=O)O [Sodium salt of a compound of Formula (I), sodium salt of sulphuric acid, mono[(1R,2S,5R)-2-cyano-7-oxo-1,6-diazabicyclo[3.2.1]oct-6-yl] ester]
- Effect on bacterial count of E. coli throughout the duration of the study (in words) [1]: not effective in decreasing the bacterial count
- Bacterial count (Log10 CFU/ml) 0 hour [1]: 7.51 Log10 CFU/ml
- Bacterial count (Log10 CFU/ml) 2 hour [1]: 8.87 Log10 CFU/ml
- Bacterial count (Log10 CFU/ml) 4 hour [1]: 9.36 Log10 CFU/ml
- Bacterial count (Log10 CFU/ml) 6 hour [1]: 9.20 Log10 CFU/ml
- Bacterial count (Log10 CFU/ml) 8 hour [1]: 9.20 Log10 CFU/ml

From US20170065566A1, “PHARMACEUTICAL COMBINATIONS COMPRISING ANTIBACTERIAL AGENTS” (WOCKHARDT LIMITED, priority 2014, published 2017)
